Laboratory results reported in patent US8252775B2, “Method of treating multiple sclerosis with phosphocholine containing lipids” (priority 2005, dated 2012).
Where “and” joins values, the source holds several entries; their conditions need not be identical. Identical values can stand only once. Entries after “also recorded” stand apart in the source; their conditions may differ.

Assays:
[1] = system: IFNγ; test: IFNγ production by PLP139-151-specific T cells from sulfatide co-immunized mice; format: in vivo; conditions: T cells from mice immunized with PLP139-151+sulfatide
Description: (§1) FIG. 9. […] (a) Co-immunization of SJL mice with sulfatide (6 μg/mouse) and PLP139-151 (100 μg/mouse) emulsified in CFA (▪ sulfatide n=10, ▪ vehicle control n=10). An additional immunization of sulfatide (6 μg/mouse) or vehicle was given i.p. on d4 and d7 post-immunization. Each point represents the mean+s.e.m. (*p<0.05; Student's t test). […] The heatmap and dendrograms represent the SAM and hierarchical cluster analysis of lipid array results. (c) Modulation of EAE disease course after i.v. injection of O4 anti-sulfatide antibody versus IgM isotype control (▪ O4 n=5, ▪ IgM control n=5). Antibody was given on days 14, 17, and 19 post-immunization.
(§2) Further, the exacerbation of mouse EAE was associated with increased lymphocyte production of pro-inflammatory cytokines. Thus, characterization of the effects of candidate lipids in the mouse EAE model for MS (EAE), both with regard to their effects on disease severity as well as the production of pro-inflammatory cytokines by autoreactive lymphocytes can be used to identify lipids likely to exacerbated MS.
Proliferation and cytokine assays. We sacrificed mice and harvested their lymph node cells and splenocytes. […] To assess proliferation, 1 μCi of ^3H-thymidine was added to each well at 48 hours for the final 18 hours of culture, and radioactivity incorporation quantified using a Betaplate scintillation counter. […]

[2] = system: anti-lipid antibodies; test: Lipid array analysis of serum from mice co-immunized with PLP139-151 plus sulfatide; format: in vivo; conditions: SJL mice co-immunized with PLP139-151 plus sulfatide
Description: as §1
Probing lipid arrays. Arrays were blocked overnight in 4° C. with 1% fatty acid free bovine serum albumin (BSA; Sigma) in phosphate buffered saline (PBS; Gibco BRL). Arrays were then probed with 1/10 dilutions of CSF, or 1/200 dilutions of sera for 2 hours at 4° C. After washing with blocking solution, a secondary antibody (anti-human IgG+IgM, Jackson Immunoresearch; anti-human IgG, Jackson Immunoresearch; anti-rabbit IgG, Amersham; or anti-mouse IgG, Amersham) conjugated to horseradish peroxidase (HRP) was added in blocking solution, and bound secondary antibodies visualized using chemiluminescence (ECL Plus, Amersham) and autoradiography. […]

[3] = system: EAE; test: Co-immunization with sulfatide plus PLP139-151, EAE disease course; format: in vivo; conditions: SJL mice; sulfatide 6 μg/mouse with PLP139-151 in CFA day 0, i.p. d4 and d7; vs vehicle
Description: as §1, §2
EAE induction and lipid co-immunization. […] Clinical disease was monitored daily using the following scoring system: 0, no disease; 1, limp tail; 2, hindlimb weakness; 3, hindlimb paralysis; 4, hindlimb and forelimb paralysis; 5, death. […]

[4] = system: TNFα; test: TNFα production by PLP139-151-specific T cells from sulfatide co-immunized mice; format: in vivo; conditions: T cells from mice immunized with PLP139-151+sulfatide
[5] = system: IL-4; test: IL-4 production by PLP139-151-specific T cells from sulfatide co-immunized mice; format: in vivo; conditions: T cells from mice immunized with PLP139-151+sulfatide
Description: as §1, §2

[6] = system: IL-12; test: IL-12 production by lymphocytes from sulfatide-treated mice; format: in vivo; conditions: lymphocytes from sulfatide-treated mice (sulfatide+PLP139-151)
Description: as §1

[7] = system: EAE; test: Treatment of established EAE with intravenous lipid; format: in vivo, mice; conditions: 100 μg lipid i.v. at onset of paralysis and days 3, 6, 12, 18; five injections; vs vehicle
[8] = system: IFNγ; test: IFNγ ELISA on PLP139-151-stimulated cells from lipid-treated EAE mice; format: in vivo; conditions: vs controls; for IFNγ secretion by lymph node cells: LN cells from treated EAE mice stimulated with PLP139-151
Description: (§3) FIG. 5a-5b. PGPC treatment lowers IFNgamma secretion and early activation marker expression in response to the encephalitogenic antigen. (a) CD69 expression on CD4^+ and CD8^+PI^− lymphocytes (live cells) after 4 days in culture with 10 μg/ml PLP139-151. The ratio of CD69^+CD4^+:CD69^−CD4^+ is 14.2%:39.6% for lymph node cells from vehicle-treated mice, 9.6%:43.8% for cells from sphingomyelin-treated mice, and 7.96%:55.2% for cells from PGPC-treated mice. […] (b) Proliferation and cytokine assays of lymph node cells and splenocytes isolated from vehicle, PGPC, and sphingomyelin-treated mice in FIG. 4c.
(§4) Mice were sacrificed 48 days after disease induction and their spleens and lymph nodes (LN) harvested for analyses of expression of activation markers on subsets of T cells, measurements of secreted cytokines, and levels of T cell proliferation. Isolated cells were restimulated with the encephalitogenic antigen PLP139-151 and analyzed by flow cytometry. Dead cells (identified based on staining with propidium iodide) were eliminated from the analyses, and cells double stained with CD4-FITC or CD8-FITC and CD69-PE are presented (FIG. 5a). […] Specifically, the cells isolated from vehicle treated mice were 39.6% CD4^+CD69^− and 14.2% CD4^+CD69^+, whereas cells from PGPC treated mice were 55.2% CD4^+CD69^− and 7.96% CD4^+CD69^+.
(§5) Proliferation and cytokine assays. We sacrificed mice and harvested their lymph node cells and splenocytes. 2.5×10^6 cells/ml were stimulated in vitro with 10 μg/ml PLP139-151, 1 μg/ml ConA, or media alone. Cells were cultured in RPMI 1640 with 10% fetal bovine serum, supplemented with L-glutamine (2 mM), sodium pyruvate (1 mM), non-essential amino acids (0.1 mM), penicillin (100 U/ml), streptomycin (0.1 mg/ml), and 2-mercaptoethanol (50 μM). To assess proliferation, 1 μCi of ^3H-thymidine was added to each well at 48 hours for the final 18 hours of culture, and radioactivity incorporation quantified using a Betaplate scintillation counter. Cytokine assays were performed on culture supernatants after 66 hours of culture using the BD OptEIA™ Mouse IFNγ ELISA kit (BD Biosciences). Results are shown as mean of triplicates+s.e.m.

[9] = system: TCR Tg LN cells; test: CFSE T cell proliferation assay, MBPAc1-11-stimulated TCR Tg LN cells; format: cell-based, mice; conditions: 75 μM lipid, 5 μg/ml MBPAc1-11, 48 hours, CD3+ and CD4+ cells; vs media alone
[10] = system: EAE; test: Prevention of EAE by co-delivery of lipid with PLP139-151/CFA; format: in vivo; conditions: SJL/J mice; 6 μg lipid with 100 μg PLP139-151 in CFA s.c. day 0, 6 μg i.p. days 4 and 7; vs vehicle
[11] = system: CD69 expression on CD4+ T cells; test: Flow cytometry of CD69 on restimulated lymph node cells from lipid-treated EAE mice; format: in vivo; conditions: for expression of early activation marker CD69 on CD4+ T cells: cells from treated EAE mice restimulated with PLP139-151, vs vehicle; for CD4+CD69+ cells / CD4+CD69− cells: lymph node cells of treated EAE mice, 4 days culture with 10 μg/ml PLP139-151; for CD4+CD69+ cells: vehicle 14.2%; for CD4+CD69− cells: vehicle 39.6%
Description: as §3, §4
Flow cytometric analysis. Cells were stained and run on a FACScan flow cytometer (BD Biosciences) using CellQuest software (BD Immunocytometry Systems). Results were analyzed using FlowJo software version 6.3.2 (Tree Star, Inc.). The following antibody conjugates were used: PE anti-mouse CD3, clone 145-2C11; FITC anti-mouse CD4, clone GK1.5; PE anti-mouse CD4, clone GK1.5; FITC anti-mouse CD8, clone 53-6.7; PE-anti-mouse CD69, clone H1.2F3. All anti-CD3, CD4, and CD8 antibodies were purchased from BD Pharmingen. Anti-mouse CD69 was purchased from eBioscience. 7AAD staining was performed using the reagents from the Annexin V-PE Apoptosis Detection Kit I (BD Pharmingen) using the manufacturer's recommended staining protocol. CFSE staining was performed on freshly isolated lymph node cells by mixing equal volumes of 37° C. pre-warmed cells in PBS containing 5% FBS with 10 μM solution of pre-warmed CFSE probe (CellTrace™ CFSE Cell Proliferation Kit) as described in the manufacturer's alternate method for labelling cells in solution (Molecular Probes).

[12] = system: TCR Tg LN cells; test: 7AAD uptake (cell death) in MBPAc1-11-stimulated TCR Tg cells; format: cell-based; conditions: 75 μM lipid, 5 μg/ml MBPAc1-11, 48 hours
Description: (§6) FIG. 6a-6d. PGPC slows the rate of T cell proliferation. […] The 0 hour time point is shown as the high peak with the black dashed line. (c) 7AAD stained cells from TCR Tg mice^33, 48 hours after incubation with 5 μg/ml MBPAc1-11 with or without lipid. […] (d) LN cells stimulated with 1 μg/ml MBPAC1-11, 30 μg/ml PGPC, with or without 50 U/ml IL-2 are depicted.
(§7) To determine if the PGPC-mediated reduction in the proliferation rate of MBPAC1-11 stimulated T cells was due to cell death, we examined 7AAD uptake to identify dead cells at the 48 hour time point (FIG. 6c). […] This effect could be reversed by the addition of 50 U/ml IL-2 (p=0.024, Student's t test) (FIG. 6d), consistent with IL-2 mediated rescue of the T cells from an anergic state.
Flow cytometric analysis. Cells were stained and run on a FACScan flow cytometer (BD Biosciences) using CellQuest software (BD Immunocytometry Systems). Results were analyzed using FlowJo software version 6.3.2 (Tree Star, Inc.). The following antibody conjugates were used: PE anti-mouse CD3, clone 145-2C11; FITC anti-mouse CD4, clone GK1.5; PE anti-mouse CD4, clone GK1.5; FITC anti-mouse CD8, clone 53-6.7; PE-anti-mouse CD69, clone H1.2F3. All anti-CD3, CD4, and CD8 antibodies were purchased from BD Pharmingen. Anti-mouse CD69 was purchased from eBioscience. […]

[13] = system: MBPAc1-11-specific T cells; test: 3H-thymidine proliferation of MBPAc1-11-stimulated LN cells with lipid in vitro; format: cell-based, mice
Description: as §6, §7
as §5, with “Cytokine assays were performed on culture supernatants after 66 hours of culture using the BD OptEIA™ Mouse IFNγ ELISA kit (BD Biosciences). Results are shown as mean of triplicates+s.e.m.” left out

[14] = system: splenocytes; test: 3H-thymidine proliferation of PLP139-151-stimulated splenocytes from lipid-treated EAE mice; format: in vivo; conditions: PLP139-151-stimulated splenocytes from treated EAE mice
Description: as §3
Mice were sacrificed 48 days after disease induction and their spleens and lymph nodes (LN) harvested for analyses of expression of activation markers on subsets of T cells, measurements of secreted cytokines, and levels of T cell proliferation. Isolated cells were restimulated with the encephalitogenic antigen PLP139-151 and analyzed by flow cytometry. Dead cells (identified based on staining with propidium iodide) were eliminated from the analyses, and cells double stained with CD4-FITC or CD8-FITC and CD69-PE are presented (FIG. 5a). […]
Proliferation and cytokine assays. […] To assess proliferation, 1 μCi of ^3H-thymidine was added to each well at 48 hours for the final 18 hours of culture, and radioactivity incorporation quantified using a Betaplate scintillation counter. […]

Compound | IFNγ production in response to PLP139-151 [1] | anti-lipid antibody reactivities in serum [2] | EAE disease course after co-immunization [3] | TNFα production in response to PLP139-151 [4] | IL-4 production in response to PLP139-151 [5] | IL-12 production [6] | severity of paralysis in established EAE [7] | IFNγ secretion by lymph node cells [8] | T cell proliferation by CFSE staining [9] | severity of EAE (prevention) [10] | expression of early activation marker CD69 on CD4+ T cells [11] | CD4+CD69+ cells [11] | CD4+CD69− cells [11] | IFNγ secretion by lymph node cells ([8]; listed as PCPG) | IFNγ secretion by splenocytes ([8]; splenocytes from treated EAE mice stimulated with PLP139-151) | cell death by 7AAD uptake [12] | effect of IL-2 on PGPC-mediated reduction of proliferation ([13]; 1 μg/ml MBPAc1-11, 30 μg/ml PGPC plus 50 U/ml IL-2) | MBPAc1-11-specific T cell proliferation (3H-thymidine incorporation) ([13]; LN cells, 1 μg/ml MBPAc1-11, 30 μg/ml PGPC) | 3H-thymidine incorporation (proliferation) of splenocytes [14]
sulfatide | increased amounts; also recorded: increased levels | increased anti-sulfatide and other anti-lipid antibody reactivities; also recorded: increased anti-lipid antibodies | exacerbated murine MS; also recorded: more severe EAE disease course | increased amounts | less and lower levels | increased levels | – | – | – | – | – | – | – | – | – | – | – | – | –
sphingomyelin | – | – | – | – | – | – | only PGPC treats ongoing disease | decreased IFNγ levels | mirrored that of the control; also recorded: line parallels gray shaded area | statistically reduced the severity of EAE; also recorded: ameliorates EAE | intermediate level of CD69 expression | 9.61% and 9.6% | 43.8% | – | – | – | – | – | –
CCCCCCCCCCCCCCCC(=O)OC[C@H](COP(=O)([O-])OCC[N+](C)(C)C)OC(=O)CCCC(=O)O [PGPC, 1-palmitoyl-2-glutaroyl-sn-glycero-3-phosphocholine] | – | – | – | – | – | – | reduced the severity of paralysis; also recorded: treats ongoing disease | secreted less IFNgamma; also recorded: secreted lower levels of IFNγ | slowed T cell proliferation; also recorded: reduces T cell proliferation rates; also recorded: reduced cell divisions | statistically reduced the severity of EAE; also recorded: ameliorates EAE | marked reduction in the expression of the early activation marker CD69 | 7.96% | 55.2% | decreased IFNγ levels | secreted less IFNgamma; also recorded: secreted lower levels of IFNγ | not due to cell death; also recorded: not inducing cell death | IL-2 reversed this effect | statistically significant reductions in MBPAc1-11-specific T cell proliferation; also recorded: reduced cell proliferation | reduced; also recorded: slightly lower proliferation
